Laboratory results from PubChem BioAssay (NCI).
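In this assay, cells in 96-well plates receive the compound at five concentrations for 48 hours. Endpoints are linearly interpolated between the surrounding concentrations. GI50 is the concentration that inhibits growth by half. TGI marks complete inhibition of growth.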 Where a SMILES comes first, the peptide text is derived from it. [ ]: non-standard residue; d: D form. The star is where a group is joined. ξ: configuration not given here. Boc = CC(C)(C)OC(=O)*; ξV = CC(C)C(N)C(=O)O; OBn = c1ccc(CO*)cc1

Columns and labels:
Assay in all cases: growth of human tumour cells (NCI), 48 h
HCT-116 colon = test system: HCT-116 colon
CCRF-CEM leukemia = test system: CCRF-CEM leukemia
HL-60(TB) leukemia = test system: HL-60(TB) leukemia
MOLT-4 leukemia = test system: MOLT-4 leukemia
NCI-H23 lung = test system: NCI-H23 lung
NCI-H522 lung = test system: NCI-H522 lung
SF-268 CNS = test system: SF-268 CNS
SNB-19 CNS = test system: SNB-19 CNS
786-0 renal = test system: 786-0 renal
A549 NSCLC = test system: A549 NSCLC
ACHN renal = test system: ACHN renal
BT-549 breast = test system: BT-549 breast
CAKI-1 renal = test system: CAKI-1 renal
COLO 205 colon = test system: COLO 205 colon
DU-145 prostate = test system: DU-145 prostate
EKVX NSCLC = test system: EKVX NSCLC
HCC-2998 colon = test system: HCC-2998 colon
HCT-15 colon = test system: HCT-15 colon
HOP-62 NSCLC = test system: HOP-62 NSCLC
HOP-92 NSCLC = test system: HOP-92 NSCLC
HS 578T breast = test system: HS 578T breast
HT29 colon = test system: HT29 colon
IGROV1 ovarian = test system: IGROV1 ovarian
K-562 leukemia = test system: K-562 leukemia
KM12 colon = test system: KM12 colon
LOX IMVI melanoma = test system: LOX IMVI melanoma
MALME-3M melanoma = test system: MALME-3M melanoma
MCF7 breast = test system: MCF7 breast
MDA-MB-231 breast = test system: MDA-MB-231 breast
MDA-MB-435 = test system: MDA-MB-435
NCI-H226 lung = test system: NCI-H226 lung
NCI-H460 lung = test system: NCI-H460 lung
NCI/ADR-RES ovarian = test system: NCI/ADR-RES ovarian
OVCAR-3 ovarian = test system: OVCAR-3 ovarian
OVCAR-4 ovarian = test system: OVCAR-4 ovarian
OVCAR-5 ovarian = test system: OVCAR-5 ovarian
OVCAR-8 ovarian = test system: OVCAR-8 ovarian
PC-3 prostate = test system: PC-3 prostate
RPMI-8226 leukemia = test system: RPMI-8226 leukemia
RXF 393 renal = test system: RXF 393 renal
SF-295 CNS = test system: SF-295 CNS
SF-539 CNS = test system: SF-539 CNS
SK-MEL-2 melanoma = test system: SK-MEL-2 melanoma
SK-MEL-28 melanoma = test system: SK-MEL-28 melanoma
SK-MEL-5 melanoma = test system: SK-MEL-5 melanoma
SK-OV-3 ovarian = test system: SK-OV-3 ovarian
SN12C renal = test system: SN12C renal
SNB-75 CNS = test system: SNB-75 CNS
SW-620 colon = test system: SW-620 colon
T-47D breast = test system: T-47D breast
TK-10 renal = test system: TK-10 renal
U251 CNS = test system: U251 CNS
UACC-257 melanoma = test system: UACC-257 melanoma
UACC-62 melanoma = test system: UACC-62 melanoma
UO-31 renal = test system: UO-31 renal

## CC(C)C(NC(=O)CNC(=O)OC(C)(C)C)C(=O)NCC(=O)OCc1ccccc1 (stereo not drawn) (Boc-Gly-[ξV]-Gly-OBn)
HCT-116 colon
  GI50: 27.3 µg/mL
  TGI: 98.5 µg/mL

## O=c1cc(-c2ccc3c(c2)OCCO3)oc2cc(Cl)ccc12
CCRF-CEM leukemia
  GI50: > 100 µM
  TGI: > 100 µM
HL-60(TB) leukemia
  GI50: > 100 µM
  TGI: > 100 µM
MOLT-4 leukemia
  GI50: > 100 µM
  TGI: > 100 µM
NCI-H23 lung
  GI50: 5.67 µM
  TGI: > 100 µM
NCI-H522 lung
  GI50: 2.97 µM
  TGI: > 100 µM
SF-268 CNS
  GI50: 3.37 µM
  TGI: > 100 µM
SNB-19 CNS
  GI50: 3.62 µM
  TGI: > 100 µM

## NNC(=O)c1cnn(-c2ccnc3c(C(F)(F)F)cccc23)c1N
786-0 renal
  GI50: > 100 µM
  TGI: > 100 µM
A549 NSCLC
  GI50: > 100 µM
  TGI: > 100 µM
ACHN renal
  GI50: > 100 µM
  TGI: > 100 µM
BT-549 breast
  GI50: > 100 µM
  TGI: > 100 µM
CAKI-1 renal
  GI50: > 100 µM
  TGI: > 100 µM
CCRF-CEM leukemia
  GI50: > 100 µM
  TGI: > 100 µM
COLO 205 colon
  GI50: > 100 µM
  TGI: > 100 µM
DU-145 prostate
  GI50: > 100 µM
  TGI: > 100 µM
EKVX NSCLC
  GI50: > 100 µM
  TGI: > 100 µM
HCC-2998 colon
  GI50: > 100 µM
  TGI: > 100 µM
HCT-116 colon
  GI50: > 100 µM
  TGI: > 100 µM
HCT-15 colon
  GI50: > 100 µM
  TGI: > 100 µM
HL-60(TB) leukemia
  GI50: > 100 µM
  TGI: > 100 µM
HOP-62 NSCLC
  GI50: > 100 µM
  TGI: > 100 µM
HOP-92 NSCLC
  GI50: 82.1 µM
  TGI: > 100 µM
HS 578T breast
  GI50: > 100 µM
  TGI: > 100 µM
HT29 colon
  GI50: > 100 µM
  TGI: > 100 µM
IGROV1 ovarian
  GI50: > 100 µM
  TGI: > 100 µM
K-562 leukemia
  GI50: > 100 µM
  TGI: > 100 µM
KM12 colon
  GI50: > 100 µM
  TGI: > 100 µM
LOX IMVI melanoma
  GI50: > 100 µM
  TGI: > 100 µM
MALME-3M melanoma
  GI50: > 100 µM
  TGI: > 100 µM
MCF7 breast
  GI50: > 100 µM
  TGI: > 100 µM
MDA-MB-231 breast
  GI50: > 100 µM
  TGI: > 100 µM
MDA-MB-435
  GI50: > 100 µM
  TGI: > 100 µM
MOLT-4 leukemia
  GI50: > 100 µM
  TGI: > 100 µM
NCI-H226 lung
  GI50: > 100 µM
  TGI: > 100 µM
NCI-H23 lung
  GI50: > 100 µM
  TGI: > 100 µM
NCI-H460 lung
  GI50: > 100 µM
  TGI: > 100 µM
NCI-H522 lung
  GI50: > 100 µM
  TGI: > 100 µM
NCI/ADR-RES ovarian
  GI50: > 100 µM
  TGI: > 100 µM
OVCAR-3 ovarian
  GI50: > 100 µM
  TGI: > 100 µM
OVCAR-4 ovarian
  GI50: > 100 µM
  TGI: > 100 µM
OVCAR-5 ovarian
  GI50: > 100 µM
  TGI: > 100 µM
OVCAR-8 ovarian
  GI50: > 100 µM
  TGI: > 100 µM
PC-3 prostate
  GI50: > 100 µM
  TGI: > 100 µM
RPMI-8226 leukemia
  GI50: > 100 µM
  TGI: > 100 µM
RXF 393 renal
  GI50: > 100 µM
  TGI: > 100 µM
SF-268 CNS
  GI50: > 100 µM
  TGI: > 100 µM
SF-295 CNS
  GI50: > 100 µM
  TGI: > 100 µM
SF-539 CNS
  GI50: > 100 µM
  TGI: > 100 µM
SK-MEL-2 melanoma
  GI50: > 100 µM
  TGI: > 100 µM
SK-MEL-28 melanoma
  GI50: > 100 µM
  TGI: > 100 µM
SK-MEL-5 melanoma
  GI50: > 100 µM
  TGI: > 100 µM
SK-OV-3 ovarian
  GI50: > 100 µM
  TGI: > 100 µM
SN12C renal
  GI50: > 100 µM
  TGI: > 100 µM
SNB-19 CNS
  GI50: > 100 µM
  TGI: > 100 µM
SNB-75 CNS
  GI50: 99.7 µM
  TGI: > 100 µM
SW-620 colon
  GI50: > 100 µM
  TGI: > 100 µM
T-47D breast
  GI50: > 100 µM
  TGI: > 100 µM
TK-10 renal
  GI50: > 100 µM
  TGI: > 100 µM
U251 CNS
  GI50: > 100 µM
  TGI: > 100 µM
UACC-257 melanoma
  GI50: > 100 µM
  TGI: > 100 µM
UACC-62 melanoma
  GI50: > 100 µM
  TGI: > 100 µM
UO-31 renal
  GI50: > 100 µM
  TGI: > 100 µM
